Source: BindingDB's records for doi:10.1021/jm00403a014 (National Institute of Diabetes, Digestive and Kidney …, 1988)
pKi: −log10 of the molar value.

Assay: Binding affinity to sigma site of Phencyclidine receptor by displacement of [3H]-(+)-SKF- 10,047

## c1ccc(C2(N3CCCCC3)CCCCC2)cc1
  pKi: 6.28
